Assay results as given in the NIST ThermoML archive (doi:10.1021/acs.jced.8b01204).
± gives the expanded uncertainty stated by the source. Blank lines part the entries; values can stand above or below the molecule they belong to.

Key:
[1] = 101 kPa, Liquid; for speed of sound: Single path-length method; for mass density: Vibrating tube method
[2] = xn = mol fraction of the nth substance listed; conditions: 101 kPa, Liquid, x2 = 0; for speed of sound: Single path-length method; for mass density: Vibrating tube method

SMILES: C[N+]1(CC2CO2)CCCC1=O.O=C([O-])c1ccccc1O (stereo not given) [1-methyl-1-(oxiran-2-ylmethyl)-2-oxopyrrolidinium salicylate]
speed of sound ([1]; 293.15 K): 1634.2 ± 6.3 m/s | mass density ([1]; 293.15 K): 1209.8 ± 3.2 kg/m3 | speed of sound ([1]; 298.15 K): 1614.5 ± 6.3 m/s | mass density ([1]; 298.15 K): 1205.5 ± 3.2 kg/m3 | speed of sound ([1]; 303.15 K): 1595.7 ± 6.3 m/s | mass density ([1]; 303.15 K): 1201.3 ± 3.2 kg/m3 | speed of sound ([1]; 308.15 K): 1577.6 ± 6.3 m/s | mass density ([1]; 308.15 K): 1197.2 ± 3.2 kg/m3 | speed of sound ([1]; 313.15 K): 1559.5 ± 6.3 m/s | mass density ([1]; 313.15 K): 1193 ± 3.2 kg/m3

SMILES: CC(=O)O [acetic acid]
speed of sound ([1]; 293.15 K): 1159.3 ± 6.1 m/s | mass density ([1]; 293.15 K): 1052.5 ± 3 kg/m3 | speed of sound ([1]; 298.15 K): 1142.8 ± 6.1 m/s | mass density ([1]; 298.15 K): 1046.9 ± 3 kg/m3 | speed of sound ([1]; 303.15 K): 1126.3 ± 6.1 m/s | mass density ([1]; 303.15 K): 1041.4 ± 3 kg/m3 | speed of sound ([1]; 308.15 K): 1109.6 ± 6.1 m/s | mass density ([1]; 308.15 K): 1035.8 ± 3 kg/m3 | speed of sound ([1]; 313.15 K): 1094.8 ± 6.1 m/s | mass density ([1]; 313.15 K): 1030 ± 3 kg/m3

Continued, values first:

speed of sound ([2]; 293.15 K): 1159.3 ± 6.1 m/s | mass density ([2]; 293.15 K): 1052.5 ± 3 kg/m3 | speed of sound ([2]; 298.15 K): 1142.8 ± 6.1 m/s | mass density ([2]; 298.15 K): 1046.9 ± 3 kg/m3 | speed of sound ([2]; 303.15 K): 1126.3 ± 6.1 m/s | mass density ([2]; 303.15 K): 1041.4 ± 3 kg/m3 | speed of sound ([2]; 308.15 K): 1109.6 ± 6.1 m/s | mass density ([2]; 308.15 K): 1035.8 ± 3 kg/m3 | speed of sound ([2]; 313.15 K): 1094.8 ± 6.1 m/s | mass density ([2]; 313.15 K): 1030 ± 3 kg/m3
SMILES: CC(=O)O [acetic acid] + C[N+]1(CC2CO2)CCCC1=O.O=C([O-])c1ccccc1O

speed of sound ([1]; 293.15 K): 1166.3 ± 6.1 m/s | mass density ([1]; 293.15 K): 993.8 ± 3 kg/m3 | speed of sound ([1]; 298.15 K): 1148.1 ± 6.1 m/s | mass density ([1]; 298.15 K): 988.4 ± 3 kg/m3 | speed of sound ([1]; 303.15 K): 1129.7 ± 6.1 m/s | mass density ([1]; 303.15 K): 983 ± 3 kg/m3 | speed of sound ([1]; 308.15 K): 1111.3 ± 6.1 m/s | mass density ([1]; 308.15 K): 977.6 ± 3 kg/m3 | speed of sound ([1]; 313.15 K): 1092.8 ± 6.1 m/s | mass density ([1]; 313.15 K): 972.2 ± 3 kg/m3
SMILES: CCC(=O)O [propanoic acid]

speed of sound ([2]; 293.15 K): 1166.3 ± 6.1 m/s | mass density ([2]; 293.15 K): 993.8 ± 3 kg/m3 | speed of sound ([2]; 298.15 K): 1148.1 ± 6.1 m/s | mass density ([2]; 298.15 K): 988.4 ± 3 kg/m3 | speed of sound ([2]; 303.15 K): 1129.7 ± 6.1 m/s | mass density ([2]; 303.15 K): 983 ± 3 kg/m3 | speed of sound ([2]; 308.15 K): 1111.3 ± 6.1 m/s | mass density ([2]; 308.15 K): 977.6 ± 3 kg/m3 | speed of sound ([2]; 313.15 K): 1092.8 ± 6.1 m/s | mass density ([2]; 313.15 K): 972.2 ± 3 kg/m3
SMILES: CCC(=O)O [propanoic acid] + C[N+]1(CC2CO2)CCCC1=O.O=C([O-])c1ccccc1O
